From ChEMBL document CHEMBL1155002, “Synthesis of phosphatidylated-monoterpene alcohols catalyzed by phospholipase D and their antiproliferative effects on human cancer cells” (2008)
Activity calls are given as the source filed them. The calls are words filed in the database; no cut-off is given here.

Assays:
PC-3 [1] = assay: Antiproliferative activity against human PC3 cells assessed as cell viability at 100 uM after 72 hrs by WST-1 assay; format: functional, cell-based
PC-3 [2] = assay: Antiproliferative activity against human PC3 cells assessed as reduction of cell viability after 72 hrs by WST-1 assay relative to control; format: functional; parameters: concentration or dose not given beside the values
PC-3 [3] = assay: Antiproliferative activity against human PC3 cells assessed as reduction of cell viability at 400 uM after 72 hrs by WST-1 assay; format: functional, cell-based
HL-60 [4] = assay: Antiproliferative activity against human HL60 cells by WST-1 assay; format: functional, cell-based; conditions: TDE = time-dependent effect
HL-60 [5] = assay: Antiproliferative activity against human HL60 cells at 400 uM by WST-1 assay; format: functional, cell-based

SMILES	Activity (PC-3 [1])	Activity (PC-3 [2]) [%]	Activity (PC-3 [3])	Activity (HL-60 [4])	Activity (HL-60 [5])
CC(C)=CCC/C(C)=C/COP(=O)(O)OCC(COC=O)OC=O (configuration not stated)	Active	–	–	–	–
CC(C)=CCC/C(C)=C\COP(=O)(O)OCC(COC=O)OC=O (configuration not stated)	Active	–	–	–	–
CC(C)=CCC/C(C)=C/CO [GERANIOL]	–	10	inactive	tde	inactive
CC1(C)C2CC=C(CO)C1C2 (configuration not stated) [MYRTENOL]	–	10	inactive	tde	inactive
CC(C)=CCC/C(C)=C\CO [NEROL]	–	10	inactive	tde	inactive
C=C(C)[C@@H]1CC=C(CO)CC1 [PERILLYL ALCOHOL]	–	10	inactive	tde	inactive
CC1(C)C2CC=C(COP(=O)(O)OCC(COC=O)OC=O)C1C2 (configuration not stated) [PHOSPHATIDYL MYRTENOL]	Active	10	–	–	–
C=C(C)C1CC=C(COP(=O)(O)OCC(COC=O)OC=O)CC1 (configuration not stated) [PHOSPHATIDYL PERILLYL ALCOHOL]	Active	10	–	–	–
